The test system of one experiment is A431 cells / TMD8 cells. The experiment in a line: Proliferation inhibitory activity against cell lines expressing BTK and EGFR (in vitro), comparison of selectivity. It is filed as cell-based, human. Conditions: ratio from GI50 (nM), 3 days culture, CELLTITER GLO. A digest of the protocol:
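BTK-expressing TMD8 DLBCL cells (RPMI1640/10% FBS) and EGFR-overexpressing A431 epidermoid carcinoma cells (DMEM/10% FBS) cultured 1 day, then exposed to compound (0.2% DMSO final) for 3 days at 37° C. Luminescence read-out; inhibition ratio % = (C−T)/(C−C0)×100, with A431/TMD8 ratio as selectivity index.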
On the technique in general: In ATP-based viability assays light output follows the ATP content of the culture.

The test system of experiment [1] is purified recombinant human EGFR protein / BTK. Description: BTK inhibition selectivity compared with EGFR kinase inhibitory activity (in vitro). The format is biochemical. Conditions: EGFR assay ATP 1.5 μM. The protocol: 1) Measurement of BTK Inhibitory Activity
2) Measurement of EGFR Inhibitory Activity
Therefore, a biotinated peptide (biotin-[…]) was produced by referring to the amino acid sequence of the peptide. The purified recombinant human EGFR protein used in the test was purchased from Carna Biosciences, Inc.
With regard to the measurement of the inhibitory activity of the compounds, firstly, the compounds of the present invention were diluted stepwise with dimethyl sulfoxide (DMSO). […] The reaction was terminated by adding EDTA thereto in order to obtain a final concentration of 24 mM. Subsequently, a detection liquid containing Eu-labeled anti-phosphorylated tyrosine antibody PT66 (PerkinElmer, Inc.) and […] APC-SA (PerkinElmer, Inc.) was added thereto, and the system was left to stand for 2 hours or longer at room temperature.
3) BTK Inhibition Selectivity

Experiment [2] has as its target purified recombinant human BTK protein (Homo sapiens (Human), UniProt Q06187). The experiment in a line: Measurement of BTK inhibitory activity (in vitro). It is filed as biochemical. Conditions: FL-PEPTIDE 2 substrate 1 μM, ATP 45 μM, 40 minutes at 25° C. In a few lines:
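Recombinant human BTK with FL-PEPTIDE 2 substrate (1 μM), 45 μM ATP and 10 mM MgCl2 in 20 mM HEPES pH 7.5, 2 mM DTT, 0.01% Triton X-100, 5% DMSO; 40 min at 25° C. Reaction stopped with 30 mM EDTA. Phosphorylated and unphosphorylated peptide separated and detected by microchannel capillary electrophoresis.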

SMILES strings stand for the structures.

Chain of purified recombinant human BTK protein (Q06187 whole entry): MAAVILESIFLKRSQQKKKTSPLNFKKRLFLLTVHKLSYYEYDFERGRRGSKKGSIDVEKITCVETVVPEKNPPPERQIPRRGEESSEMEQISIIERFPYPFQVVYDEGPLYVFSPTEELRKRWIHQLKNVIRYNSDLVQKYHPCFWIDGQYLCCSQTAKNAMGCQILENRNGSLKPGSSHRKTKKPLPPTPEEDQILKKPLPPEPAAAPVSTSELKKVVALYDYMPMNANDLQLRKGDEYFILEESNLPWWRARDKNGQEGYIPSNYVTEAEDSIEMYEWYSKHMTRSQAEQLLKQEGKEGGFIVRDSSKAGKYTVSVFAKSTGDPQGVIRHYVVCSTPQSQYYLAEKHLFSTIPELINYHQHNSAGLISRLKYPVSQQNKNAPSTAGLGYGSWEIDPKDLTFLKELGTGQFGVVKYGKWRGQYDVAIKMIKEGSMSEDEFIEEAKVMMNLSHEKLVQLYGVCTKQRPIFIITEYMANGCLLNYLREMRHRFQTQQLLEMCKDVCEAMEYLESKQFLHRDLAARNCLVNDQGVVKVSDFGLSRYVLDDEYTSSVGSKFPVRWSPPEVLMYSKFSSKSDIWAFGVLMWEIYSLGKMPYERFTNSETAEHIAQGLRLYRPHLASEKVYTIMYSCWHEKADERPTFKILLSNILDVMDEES

In general, IC50 refers to the point on the concentration scale where inhibition reaches its midpoint. Consider `C=CC(=O)N1CCC(Cn2nc(C(=O)Nc3nc4ccccc4o3)c3c(N)ncnc32)CC1` [Example 68, 1-((1-acryloylpiperidin-4-yl)methyl)-4-amino-N-(benzo[d]oxazol-2-yl)-1H-pyrazolo[3,4-d]pyrimidine-3-carboxamide], for which the “A431 cell proliferation inhibition ratio/TMD8 cell proliferation inhibitio ratio” value in the experiment with A431 cells / TMD8 cells is greater than 4785.8. In addition, in experiment [1], the “EGFR inhibitory activity IC50 value (nM)/BTK inhibitory activity IC50 value (nM)” value (“EGFR inhibitory activity IC50 value” for short) came out at 11.4. Also, the half-maximal inhibitory concentration (IC50) in experiment [2] was 13.2 nM.

Take `CC(C)N(C)C/C=C/C(=O)N1CC[C@@H](n2cc(C(=O)Nc3nc4cc(Cl)ccc4o3)c3c(N)ncnc32)C1` [Example 52, (R,E)-4-amino-N-(5-chlorobenzo[d]oxazol-2-yl)-7-(1-(4-(isopropyl(methyl)amino)but-2-enoyl)pyrrolidin-3-yl) 7H-pyrrolo[2,3-d]pyrimidine-5-carboxamide]: the “A431 cell proliferation inhibition ratio/TMD8 cell proliferation inhibitio ratio” value in the experiment with A431 cells / TMD8 cells was greater than 3617.9. Besides, the “EGFR inhibitory activity IC50 value” value in experiment [1] came out at 20.6. In experiment [2], the half-inhibitory concentration (IC50) worked out at 1.2 nM.

As to `CN(C)C/C=C/C(=O)N1CCC[C@@H](n2nc(C(=O)Nc3nc4cc(Cl)ccc4o3)c3c(N)ncnc32)C1` [Example 15, (R,E)-4-amino-N-(5-chlorobenzo[d]oxazol-2-yl)-1-(1-(4-(dimethylamino)but-2-enoyl)piperidin-3-yl)-1H-pyrazolo[3,4-d]pyrimidine-3-carboxamide], the “A431 cell proliferation inhibition ratio/TMD8 cell proliferation inhibitio ratio” value in the experiment on A431 cells / TMD8 cells amounted to 16442.0. Besides, the “EGFR inhibitory activity IC50 value” value in experiment [1] was 145.0. Besides, the IC50 in experiment [2] was determined as 0.786 nM.

Turning to `CC(C)N(C)C/C=C/C(=O)N1CC[C@@H](n2nc(C(=O)Nc3nc4cc(Cl)ccc4o3)c3c(N)ncnc32)C1` [Example 35, (R,E)-4-amino-N-(5-chlorobenzo[d]oxazol-2-yl)-1-(1-(4-(isopropyl(methyl)amino)but-2-enoyl)pyrrolidin-3-yl)-1H-pyrazolo[3,4-d]pyrimidine-3-carboxamide], the “A431 cell proliferation inhibition ratio/TMD8 cell proliferation inhibitio ratio” value in the experiment with A431 cells / TMD8 cells is greater than 18691.6. Further, the “EGFR inhibitory activity IC50 value” value in experiment [1] came out at 35.1. Also, the 50% inhibitory concentration (IC50) in experiment [2] was 0.792 nM.

With `C=CC(=O)N1CCCC(Cn2nc(C(=O)Nc3nc4ccccc4o3)c3c(N)ncnc32)C1` (stereo not drawn) [Example 67, 1-((1-acryloylpiperidin-3-yl)methyl)-4-amino-N-(benzo[d]oxazol-2-yl)-1H-pyrazolo[3,4-d]pyrimidine-3-carboxamide], the “A431 cell proliferation inhibition ratio/TMD8 cell proliferation inhibitio ratio” value in the experiment on A431 cells / TMD8 cells was greater than 2168.7. In addition, the “EGFR inhibitory activity IC50 value” value in experiment [1] came to 18.0. Moreover, the IC50 in experiment [2] came out at 14 nM.

With `C/C=C/C(=O)N1CC[C@@H](n2nc(C(=O)Nc3nc4cc(Cl)ccc4o3)c3c(N)ncnc32)C1` [Example 25, (R,E)-4-amino-N-(5-chlorobenzo[d]oxazol-2-yl)-1-(1-(but-2-enoyl)pyrrolidin-3-yl)-1H-pyrazolo[3,4-d]pyrimidine-3-carboxamide], the “A431 cell proliferation inhibition ratio/TMD8 cell proliferation inhibitio ratio” value in the experiment with A431 cells / TMD8 cells is 2793.0. The “EGFR inhibitory activity IC50 value” value in experiment [1] stood at 173.7. The IC50 in experiment [2] amounted to 1.17 nM.

On to `C=CC(=O)N[C@H]1CC[C@@H](n2nc(C(=O)Nc3nc4ccccc4o3)c3c(N)ncnc32)CC1` [Example 71, 1-((1S,4S)-4-acrylamidocyclohexyl)-4-amino-N-(benzo[d]oxazol-2-yl)-1H-pyrazolo[3,4-d]pyrimidine-3-carboxamide], for which the “A431 cell proliferation inhibition ratio/TMD8 cell proliferation inhibitio ratio” value with A431 cells / TMD8 cells is listed as greater than 7657.0. Also, in experiment [1], the “EGFR inhibitory activity IC50 value” value is 42.0. The IC50 in experiment [2] worked out at 5.89 nM.

Consider `CCN(CC)C/C=C/C(=O)N1CC[C@@H](n2cc(C(=O)Nc3nc4cc(Cl)ccc4o3)c3c(N)ncnc32)C1` [Example 51, (R,E)-4-amino-N-(5-chlorobenzo[d]oxazol-2-yl)-7-(1-(4-(diethylamino)but-2-enoyl)pyrrolidin-3-yl) 7H-pyrrolo[2,3-d]pyrimidine-5-carboxamide], for which the “A431 cell proliferation inhibition ratio/TMD8 cell proliferation inhibitio ratio” value in the experiment with A431 cells / TMD8 cells was greater than 2044.6. Besides, the “EGFR inhibitory activity IC50 value” value in experiment [1] is given as 31.1. In addition, the IC50 in experiment [2] came out at 1.48 nM.

For the compound `C=CC(=O)N1CC[C@@H](n2nc(C(=O)Nc3nc4cc(C#N)ccc4o3)c3c(N)ncnc32)C1` [Example 39, (R)-1-(1-acryloylpyrrolidin-3-yl)-4-amino-N-(5-cyanobenzo[d]oxazol-2-yl)-1H-pyrazolo[3,4-d]pyrimidine-3-carboxamide], in the experiment with A431 cells / TMD8 cells, the “A431 cell proliferation inhibition ratio/TMD8 cell proliferation inhibitio ratio” value is listed as greater than 3510.0. The “EGFR inhibitory activity IC50 value” value in experiment [1] was 37.5. The IC50 in experiment [2] is 1.12 nM.

In the case of `C=CC(=O)N1CC(Cn2nc(C(=O)Nc3nc4ccccc4o3)c3c(N)ncnc32)C1` [Example 70, 1-((1-acryloylazetidin-3-yl)methyl)-4-amino-N-(benzo[d]oxazol-2-yl)-1H-pyrazolo[3,4-d]pyrimidine-3-carboxamide], the “A431 cell proliferation inhibition ratio/TMD8 cell proliferation inhibitio ratio” value in the experiment on A431 cells / TMD8 cells was greater than 8369.4. Also, in experiment [1], the “EGFR inhibitory activity IC50 value” value is 12.2. Besides, in experiment [2], the IC50 amounted to 3.17 nM.

In the case of `C=CC(=O)N1CCC[C@@H](n2nc(C(=O)Nc3nc4ncccc4o3)c3c(N)ncnc32)C1` [Example 9, (R)-1-(1-acryloylpiperidin-3-yl)-4-amino-N-(oxazolo[4,5-b]pyridin-2-yl)-1H-pyrazolo[3,4-d]pyrimidine-3-carboxamide], the “A431 cell proliferation inhibition ratio/TMD8 cell proliferation inhibitio ratio” value in the experiment on A431 cells / TMD8 cells is reported as 8196.7. The “EGFR inhibitory activity IC50 value” value in experiment [1] is given as 28.4. In addition, the IC50 in experiment [2] came out at 1.37 nM.

In the case of `CC(C)N(C)C/C=C/C(=O)N1CCC[C@@H](n2nc(C(=O)Nc3nc4cc(Cl)ccc4o3)c3c(N)ncnc32)C1` [Example 18, (R,E)-4-amino-N-(5-chlorobenzo[d]oxazol-2-yl)-1-(1-(4-(isopropyl(methyl)amino)but-2-enoyl)piperidin-3-yl)-1H-pyrazolo[3,4-d]pyrimidine-3-carboxamide], in the experiment on A431 cells / TMD8 cells, the “A431 cell proliferation inhibition ratio/TMD8 cell proliferation inhibitio ratio” value is reported as greater than 15625.0. In addition, the “EGFR inhibitory activity IC50 value” value in experiment [1] is given as 121.3. In experiment [2], the IC50 was 0.788 nM.

In the case of `CN(C)C/C=C/C(=O)N1CC[C@@H](n2nc(C(=O)Nc3nc4cc(-c5ccccc5)ccc4o3)c3c(N)ncnc32)C1` [Example 42, (R,E)-4-amino-N-(5-phenylbenzo[d]oxazol-2-yl)-1-(1-(4-(dimethylamino)but-2-enoyl)pyrrolidin-3-yl)-1H-pyrazolo[3,4-d]pyrimidine-3-carboxamide], the “A431 cell proliferation inhibition ratio/TMD8 cell proliferation inhibitio ratio” value in the experiment with A431 cells / TMD8 cells came to 3934.1. The “EGFR inhibitory activity IC50 value” value in experiment [1] is 19.4. In addition, in experiment [2], the half-maximal inhibitory concentration (IC50) came out at 0.771 nM.

As for `CCN(C)C/C=C/C(=O)N1CC[C@@H](n2cc(C(=O)Nc3nc4cc(Cl)ccc4o3)c3c(N)ncnc32)C1` [Example 50, (R,E)-4-amino-N-(5-chlorobenzo[d]oxazol-2-yl)-7-(1-(4-(ethyl(methyl)amino)but-2-enoyl)pyrrolidin-3-yl) 7H-pyrrolo[2,3-d]pyrimidine-5-carboxamide], the “A431 cell proliferation inhibition ratio/TMD8 cell proliferation inhibitio ratio” value with A431 cells / TMD8 cells is reported as greater than 2767.8. For the same compound, in experiment [1], the “EGFR inhibitory activity IC50 value” value is reported as 22.1. Further, in experiment [2], the half-inhibitory concentration (IC50) was 1.41 nM.

These data come from patent publication US9580432B2, “Fused pyrimidine compound or salt thereof” (TAIHO PHARMACEUTICAL CO., LTD., priority 2013, dated 2017).
